pIC50: −log10 of the molar value.
Tests used:
Experiment in all cases: Growth inhibitory activity of compounds on BaF3 cell lines stably transfected with kinase (MTS, 48 h)
Assay type in all cases: cell-based
[1] = molecular target: T1, various mutants of kinase EGFR (BaF3 cell lines stably transfected with kinase) (Homo sapiens, UniProt P00533, L858R); settings: BaF3 cell line stably transfected with EGFR L858R, read-out: L858R growth inhibitory activity IC50
T1 construct: expressed in transfected cells; host or cells: BaF3
Summary of the method: (§1)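 Growth is measured by MTS reduction (OD 490 nm) after 48 h compound exposure at up to 10 µM in 8 steps of 1/3. Inhibition is calculated against a 0.1% DMSO control and cell-free blank, and IC50 is derived from it.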

[2] = molecular target: T2, various mutants of kinase EGFR (BaF3 cell lines stably transfected with kinase) (Homo sapiens, UniProt P00533, C797S/L858R/T790M); settings: BaF3 cell line stably transfected with EGFR L858R/T790M/C797S, read-out: L858R/T790M/ C797S growth inhibitory activity IC50
T2 construct: expressed in transfected cells; host or cells: BaF3
T2 sequence (P00533 25-1210 T790M/C797S/L858R): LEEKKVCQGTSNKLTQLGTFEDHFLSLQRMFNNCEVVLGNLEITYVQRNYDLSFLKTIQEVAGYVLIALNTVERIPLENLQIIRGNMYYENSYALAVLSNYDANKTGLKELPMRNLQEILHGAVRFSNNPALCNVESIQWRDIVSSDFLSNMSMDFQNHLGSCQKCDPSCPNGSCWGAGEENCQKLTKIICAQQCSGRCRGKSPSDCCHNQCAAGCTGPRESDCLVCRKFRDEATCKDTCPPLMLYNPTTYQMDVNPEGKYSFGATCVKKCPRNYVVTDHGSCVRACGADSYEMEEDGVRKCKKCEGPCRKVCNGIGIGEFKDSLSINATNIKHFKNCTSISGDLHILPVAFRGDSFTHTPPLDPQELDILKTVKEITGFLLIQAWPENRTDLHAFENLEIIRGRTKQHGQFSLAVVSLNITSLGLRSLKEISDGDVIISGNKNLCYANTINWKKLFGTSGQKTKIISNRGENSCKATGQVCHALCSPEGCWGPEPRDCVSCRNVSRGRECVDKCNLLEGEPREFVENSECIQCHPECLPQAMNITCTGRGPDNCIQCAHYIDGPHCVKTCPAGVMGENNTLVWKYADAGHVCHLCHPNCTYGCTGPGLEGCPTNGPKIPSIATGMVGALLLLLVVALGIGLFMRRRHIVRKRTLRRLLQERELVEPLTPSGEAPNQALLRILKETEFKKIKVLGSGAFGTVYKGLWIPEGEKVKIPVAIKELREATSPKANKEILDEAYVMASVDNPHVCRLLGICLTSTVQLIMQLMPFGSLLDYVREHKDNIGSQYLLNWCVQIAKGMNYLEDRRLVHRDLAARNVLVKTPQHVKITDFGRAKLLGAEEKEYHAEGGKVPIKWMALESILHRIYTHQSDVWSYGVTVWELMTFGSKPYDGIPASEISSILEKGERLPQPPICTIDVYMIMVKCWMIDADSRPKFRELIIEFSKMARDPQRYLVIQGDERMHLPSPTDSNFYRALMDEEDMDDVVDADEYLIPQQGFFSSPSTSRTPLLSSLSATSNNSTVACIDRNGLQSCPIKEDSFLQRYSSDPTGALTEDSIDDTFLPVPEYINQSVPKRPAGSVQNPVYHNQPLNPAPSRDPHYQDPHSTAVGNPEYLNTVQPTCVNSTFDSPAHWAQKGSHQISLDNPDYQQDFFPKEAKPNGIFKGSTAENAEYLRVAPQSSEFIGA
Summary of the method: as §1

[3] = molecular target: T3, various mutants of kinase EGFR (BaF3 cell lines stably transfected with kinase) (Homo sapiens, UniProt P00533, L858R/T790M); settings: BaF3 cell line stably transfected with EGFR L858R/T790M, read-out: L858R/ T790M growth inhibitory activity IC50
T3 construct: expressed in transfected cells; host or cells: BaF3
T3 sequence (P00533 25-1210 T790M/L858R): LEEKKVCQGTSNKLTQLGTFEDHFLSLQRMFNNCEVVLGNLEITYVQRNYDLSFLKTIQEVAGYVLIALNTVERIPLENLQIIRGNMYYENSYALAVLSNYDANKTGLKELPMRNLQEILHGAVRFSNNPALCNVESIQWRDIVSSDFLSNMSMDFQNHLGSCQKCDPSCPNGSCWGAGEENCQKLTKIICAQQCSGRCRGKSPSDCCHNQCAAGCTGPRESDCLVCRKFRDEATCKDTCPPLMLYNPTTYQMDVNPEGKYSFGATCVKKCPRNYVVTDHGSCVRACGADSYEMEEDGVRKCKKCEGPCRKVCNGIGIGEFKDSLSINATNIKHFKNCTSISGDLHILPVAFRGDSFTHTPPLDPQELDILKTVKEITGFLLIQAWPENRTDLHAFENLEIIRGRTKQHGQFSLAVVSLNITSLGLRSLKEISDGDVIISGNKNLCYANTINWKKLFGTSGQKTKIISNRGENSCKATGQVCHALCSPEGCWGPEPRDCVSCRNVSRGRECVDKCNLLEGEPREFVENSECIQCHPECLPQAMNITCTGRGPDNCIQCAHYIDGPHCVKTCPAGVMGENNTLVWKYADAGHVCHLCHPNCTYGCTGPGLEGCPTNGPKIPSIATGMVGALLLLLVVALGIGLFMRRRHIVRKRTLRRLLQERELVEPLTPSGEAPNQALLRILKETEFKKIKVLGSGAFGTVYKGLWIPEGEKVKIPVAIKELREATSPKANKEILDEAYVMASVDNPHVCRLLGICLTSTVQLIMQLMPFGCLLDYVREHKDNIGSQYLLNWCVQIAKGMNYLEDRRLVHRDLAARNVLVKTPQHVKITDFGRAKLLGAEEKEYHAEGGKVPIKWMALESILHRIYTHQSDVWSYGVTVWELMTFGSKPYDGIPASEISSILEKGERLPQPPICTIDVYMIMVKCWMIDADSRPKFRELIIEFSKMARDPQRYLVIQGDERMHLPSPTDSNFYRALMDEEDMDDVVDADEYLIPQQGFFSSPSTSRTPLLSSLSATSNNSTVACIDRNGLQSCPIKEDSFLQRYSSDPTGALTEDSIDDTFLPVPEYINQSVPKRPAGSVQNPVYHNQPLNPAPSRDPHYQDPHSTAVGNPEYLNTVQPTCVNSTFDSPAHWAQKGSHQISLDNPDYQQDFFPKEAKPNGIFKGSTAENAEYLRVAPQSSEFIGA
Summary of the method: as §1

[4] = molecular target: T4, various mutants of kinase EGFR (BaF3 cell lines stably transfected with kinase) (Homo sapiens, UniProt P00533, T790M, form not given); settings: BaF3 cell line stably transfected with EGFR Δ19Del/T790M, read-out: Δ19Del/ T790M growth inhibitory activity IC50
T4 construct: other: BaF3 cells stably transfected with EGFR Δ19Del/T790M; MTS, 48 h; other: BaF3 cell line stably transfected with EGFR Δ19Del/T790M; MTS, 48
Summary of the method: as §1

[5] = molecular target: T5, various mutants of kinase EGFR (BaF3 cell lines stably transfected with kinase) (Homo sapiens, UniProt P00533, T790M/C797S, form not given); settings: BaF3 cell line stably transfected with EGFR Δ19Del/T790M/C797S, read-out: Δ19Del/T790M/ C797S growth inhibitory activity IC50
T5 construct: other: BaF3 cells stably transfected with EGFR Δ19Del/T790M/C797S; MTS, 48; other: BaF3 cell line stably transfected with EGFR Δ19Del/T790M/C7
T5 sequence (P00533 with tags, fused parts or gaps DEL746-750/T790M/C797S, form open): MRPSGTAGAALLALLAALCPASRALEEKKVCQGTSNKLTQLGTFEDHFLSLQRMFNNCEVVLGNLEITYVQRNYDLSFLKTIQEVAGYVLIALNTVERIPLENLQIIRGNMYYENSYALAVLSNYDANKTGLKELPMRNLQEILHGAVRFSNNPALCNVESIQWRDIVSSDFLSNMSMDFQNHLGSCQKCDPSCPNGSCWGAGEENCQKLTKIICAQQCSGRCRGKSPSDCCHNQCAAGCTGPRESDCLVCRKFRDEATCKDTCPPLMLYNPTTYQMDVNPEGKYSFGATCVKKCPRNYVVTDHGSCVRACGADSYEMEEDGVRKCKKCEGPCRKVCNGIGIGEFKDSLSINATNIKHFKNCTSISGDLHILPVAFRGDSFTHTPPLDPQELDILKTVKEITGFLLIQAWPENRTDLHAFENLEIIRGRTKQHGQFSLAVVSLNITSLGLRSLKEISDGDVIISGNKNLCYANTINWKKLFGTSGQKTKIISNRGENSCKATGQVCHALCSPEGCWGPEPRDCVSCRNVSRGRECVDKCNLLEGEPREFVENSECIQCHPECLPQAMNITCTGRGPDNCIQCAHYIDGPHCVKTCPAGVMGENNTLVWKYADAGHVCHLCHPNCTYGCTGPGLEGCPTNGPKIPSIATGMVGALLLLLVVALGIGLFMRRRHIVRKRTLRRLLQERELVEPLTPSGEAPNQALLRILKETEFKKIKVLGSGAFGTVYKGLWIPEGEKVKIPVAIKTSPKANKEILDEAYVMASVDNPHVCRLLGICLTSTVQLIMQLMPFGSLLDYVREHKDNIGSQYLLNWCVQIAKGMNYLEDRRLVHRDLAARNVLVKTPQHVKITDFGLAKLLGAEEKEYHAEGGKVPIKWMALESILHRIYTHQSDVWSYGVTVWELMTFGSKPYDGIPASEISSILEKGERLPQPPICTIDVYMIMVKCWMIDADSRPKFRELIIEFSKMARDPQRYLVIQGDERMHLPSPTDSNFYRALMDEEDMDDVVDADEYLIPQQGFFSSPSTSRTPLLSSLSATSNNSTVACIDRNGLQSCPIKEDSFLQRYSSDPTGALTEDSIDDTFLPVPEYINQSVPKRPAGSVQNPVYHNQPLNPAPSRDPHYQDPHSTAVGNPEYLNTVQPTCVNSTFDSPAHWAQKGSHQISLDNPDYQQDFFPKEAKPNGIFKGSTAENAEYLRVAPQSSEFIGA
Summary of the method: as §1

[6] = molecular target: T6, various mutants of kinase EGFR (BaF3 cell lines stably transfected with kinase) (Homo sapiens, UniProt P00533); settings: BaF3 cell line stably transfected with EGFR Δ19Del, read-out: Δ19Del growth inhibitory activity IC50
T6 construct: other: BaF3 cells stably transfected with EGFR Δ19Del; MTS, 48 h; other: BaF3 cell line stably transfected with EGFR Δ19Del
T6 sequence (P00533 with tags, fused parts or gaps DEL746-750): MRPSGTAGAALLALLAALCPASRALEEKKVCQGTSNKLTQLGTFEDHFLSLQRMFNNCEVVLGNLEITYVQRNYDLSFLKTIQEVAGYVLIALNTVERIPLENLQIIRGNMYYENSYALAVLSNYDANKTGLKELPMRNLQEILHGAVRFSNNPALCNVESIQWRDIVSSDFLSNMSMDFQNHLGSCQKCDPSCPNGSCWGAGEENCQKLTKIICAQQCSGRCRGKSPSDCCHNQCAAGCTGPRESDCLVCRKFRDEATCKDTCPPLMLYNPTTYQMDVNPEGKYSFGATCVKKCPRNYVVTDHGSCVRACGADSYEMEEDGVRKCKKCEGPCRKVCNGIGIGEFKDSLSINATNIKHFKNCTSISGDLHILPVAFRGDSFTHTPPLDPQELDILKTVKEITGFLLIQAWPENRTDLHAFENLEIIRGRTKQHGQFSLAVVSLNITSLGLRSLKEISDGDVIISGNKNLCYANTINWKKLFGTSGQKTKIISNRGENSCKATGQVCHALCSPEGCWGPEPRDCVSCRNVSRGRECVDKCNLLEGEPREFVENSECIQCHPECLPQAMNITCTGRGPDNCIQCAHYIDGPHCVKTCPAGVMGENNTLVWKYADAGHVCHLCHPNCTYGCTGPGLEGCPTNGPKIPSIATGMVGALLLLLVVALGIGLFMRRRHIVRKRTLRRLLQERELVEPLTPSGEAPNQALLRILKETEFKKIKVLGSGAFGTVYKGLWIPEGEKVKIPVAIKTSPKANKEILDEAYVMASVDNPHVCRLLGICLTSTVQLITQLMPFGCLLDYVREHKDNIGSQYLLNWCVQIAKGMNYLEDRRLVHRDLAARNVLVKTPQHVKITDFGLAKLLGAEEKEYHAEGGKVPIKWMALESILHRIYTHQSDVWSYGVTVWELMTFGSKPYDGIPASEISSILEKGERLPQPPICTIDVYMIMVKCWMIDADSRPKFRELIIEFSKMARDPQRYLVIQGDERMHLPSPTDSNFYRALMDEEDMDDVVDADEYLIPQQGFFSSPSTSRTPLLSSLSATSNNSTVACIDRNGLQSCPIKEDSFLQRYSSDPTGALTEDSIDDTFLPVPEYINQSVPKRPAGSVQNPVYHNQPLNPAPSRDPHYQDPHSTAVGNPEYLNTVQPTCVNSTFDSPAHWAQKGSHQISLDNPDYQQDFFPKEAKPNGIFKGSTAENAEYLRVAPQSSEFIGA
Summary of the method: as §1

SMILES	pIC50 [1]	pIC50 [2]	pIC50 [3]	pIC50 [4]	pIC50 [5]	pIC50 [6]
CCc1cc(Nc2ncc(CC)c(Nc3ccc4nccnc4c3N(C)S(C)(=O)=O)n2)c(OC(F)(F)F)cc1N1CCC(N2CCN(C)CC2)CC1 [Compound I-321]	6.30 to 7.30	6.30 to 7.30	6.30 to 7.30	≥ 7.30	≥ 7.30	6.30 to 7.30
CCc1cc(Nc2ncc(CC)c(Nc3ccc4nccnc4c3N(C)S(C)(=O)=O)n2)c(OC)cc1N1CCN(C)CC1 [Compound I-322]	≥ 7.30	≥ 7.30	≥ 7.30	≥ 7.30	≥ 7.30	≥ 7.30
CCc1cc(Nc2ncc(CC)c(Nc3ccc4nccnc4c3N(C)S(C)(=O)=O)n2)c(OC)cc1N1CCC(N(C)C)CC1 [Compound I-323]	≥ 7.30	≥ 7.30	≥ 7.30	≥ 7.30	≥ 7.30	≥ 7.30
CCc1cc(Nc2ncc(CC)c(Nc3ccc4nccnc4c3N(C)S(C)(=O)=O)n2)c(OC)cc1N1CCC(N(C)C)C1 (stereo not drawn) [Compound I-324]	≥ 7.30	≥ 7.30	≥ 7.30	≥ 7.30	≥ 7.30	≥ 7.30
COc1cc(N2CCC(N3CCN(C)CC3)CC2)ccc1Nc1ncc(C(C)C)c(Nc2ccc3nccnc3c2N(C)S(C)(=O)=O)n1 [Compound I-325]	6.30 to 7.30	6.30 to 7.30	6.30 to 7.30	6.30 to 7.30	≥ 7.30	6.30 to 7.30
COc1cc(N2CCC(N3CCN(C)CC3)CC2)c(C)cc1Nc1ncc(C(C)C)c(Nc2ccc3nccnc3c2N(C)S(C)(=O)=O)n1 [Compound I-326]	6.30 to 7.30	6.30 to 7.30	6.30 to 7.30	6.30 to 7.30	6.30 to 7.30	6.30 to 7.30
CCc1cc(Nc2ncc(C(C)C)c(Nc3ccc4nccnc4c3N(C)S(C)(=O)=O)n2)c(OC)cc1N1CCC(N2CCN(C)CC2)CC1 [Compound I-327]	≥ 7.30	6.30 to 7.30	≥ 7.30	≥ 7.30	6.30 to 7.30	≥ 7.30
CCc1cc(Nc2ncc(C(C)C)c(Nc3ccc4nccnc4c3N(C)S(C)(=O)=O)n2)c(OC)nc1N1CCC(N2CCN(C)CC2)CC1 [Compound I-328]	6.30 to 7.30	6.30 to 7.30	≥ 7.30	≥ 7.30	6.30 to 7.30	6.30 to 7.30
CCc1cc(Nc2ncc(C(C)C)c(Nc3ccc4nccnc4c3N(C)S(C)(=O)=O)n2)c(OC)cc1N1CCN(C)CC1 [Compound I-329]	6.30 to 7.30	6.30 to 7.30	≥ 7.30	≥ 7.30	6.30 to 7.30	6.30 to 7.30
CCc1cc(Nc2ncc(C(C)C)c(Nc3ccc4nccnc4c3N(C)S(C)(=O)=O)n2)c(OC)cc1N1CCC(N(C)C)CC1 [Compound I-330]	≥ 7.30	≥ 7.30	≥ 7.30	≥ 7.30	≥ 7.30	≥ 7.30
CCc1cc(Nc2ncc(C(C)C)c(Nc3ccc4nccnc4c3N(C)S(C)(=O)=O)n2)c(OC)cc1N1CCC(N(C)C)C1 (stereo not drawn) [Compound I-331]	6.30 to 7.30	≥ 7.30	6.30 to 7.30	≥ 7.30	≥ 7.30	6.30 to 7.30
COc1cc(N2CCC(N3CCN(C)CC3)CC2)c(C)cc1Nc1ncc(OC)c(Nc2ccc3nccnc3c2N(C)S(C)(=O)=O)n1 [Compound I-332]	≥ 7.30	≥ 7.30	≥ 7.30	≥ 7.30	≥ 7.30	≥ 7.30
CCc1cc(Nc2ncc(OC)c(Nc3ccc4nccnc4c3N(C)S(C)(=O)=O)n2)c(OC)cc1N1CCC(N2CCN(C)CC2)CC1 [Compound I-333]	≥ 7.30	≥ 7.30	≥ 7.30	≥ 7.30	≥ 7.30	≥ 7.30
CCc1cc(Nc2ncc(OC)c(Nc3ccc4nccnc4c3N(C)S(C)(=O)=O)n2)c(OC)nc1N1CCC(N2CCN(C)CC2)CC1 [Compound I-334]	≥ 7.30	≥ 7.30	≥ 7.30	≥ 7.30	≥ 7.30	≥ 7.30
CCc1cc(Nc2ncc(OC)c(Nc3ccc4nccnc4c3N(C)S(C)(=O)=O)n2)c(OC)cc1N1CCC(N(C)C)C1 (stereo not drawn) [Compound I-335]	≥ 7.30	≥ 7.30	≥ 7.30	≥ 7.30	≥ 7.30	≥ 7.30
CCOc1cnc(Nc2cc(C)c(N3CCC(N4CCN(C)CC4)CC3)cc2OC)nc1Nc1ccc2nccnc2c1N(C)S(C)(=O)=O [Compound I-336]	6.30 to 7.30	6.30 to 7.30	6.30 to 7.30	6.30 to 7.30	5.60 to 6.30	6.30 to 7.30
CCOc1cnc(Nc2cc(CC)c(N3CCC(N4CCN(C)CC4)CC3)cc2OC)nc1Nc1ccc2nccnc2c1N(C)S(C)(=O)=O [Compound I-337]	6.30 to 7.30	6.30 to 7.30	6.30 to 7.30	≥ 7.30	6.30 to 7.30	≥ 7.30
CCOc1cnc(Nc2cc(CC)c(N3CCC(N4CCN(C)CC4)CC3)nc2OC)nc1Nc1ccc2nccnc2c1N(C)S(C)(=O)=O [Compound I-338]	6.30 to 7.30	6.30 to 7.30	6.30 to 7.30	6.30 to 7.30	5.60 to 6.30	6.30 to 7.30
COc1cc(N2CCC(N3CCN(C)CC3)CC2)c(C)cc1Nc1nccc(Nc2ccc3nccnc3c2N(C)S(C)(=O)=O)n1 [Compound I-340]	≥ 7.30	6.30 to 7.30	≥ 7.30	≥ 7.30	6.30 to 7.30	≥ 7.30
CCc1cc(Nc2nccc(Nc3ccc4nccnc4c3N(C)S(C)(=O)=O)n2)c(OC)cc1N1CCC(N2CCN(C)CC2)CC1 [Compound I-341]	≥ 7.30	≥ 7.30	≥ 7.30	≥ 7.30	6.30 to 7.30	≥ 7.30
COc1cc(N2CCC(N3CCN(C)CC3)CC2)c(C(C)C)cc1Nc1nccc(Nc2ccc3nccnc3c2N(C)S(C)(=O)=O)n1 [Compound I-342]	6.30 to 7.30	5.60 to 6.30	6.30 to 7.30	6.30 to 7.30	5.60 to 6.30	6.30 to 7.30
COc1cc(N2CCC(N3CCN(C)CC3)CC2)c(C2CC2)cc1Nc1nccc(Nc2ccc3nccnc3c2N(C)S(C)(=O)=O)n1 [Compound I-343]	6.30 to 7.30	6.30 to 7.30	6.30 to 7.30	6.30 to 7.30	6.30 to 7.30	6.30 to 7.30
CCc1cc(Nc2nccc(Nc3ccc4nccnc4c3N(C)S(C)(=O)=O)n2)ccc1N1CCC(N2CCN(C)CC2)CC1 [Compound I-344]	≥ 7.30	≥ 7.30	≥ 7.30	6.30 to 7.30	6.30 to 7.30	≥ 7.30
COc1cc(N2CCC(N3CCN(C)CC3)CC2)c(C(C)C)cc1Nc1ncc(C#N)c(Nc2ccc3nccnc3c2N(C)S(C)(=O)=O)n1 [Compound I-345]	6.30 to 7.30	6.30 to 7.30	6.30 to 7.30	6.30 to 7.30	6.30 to 7.30	6.30 to 7.30
CCc1cc(Nc2ncc(C#N)c(Nc3ccc4nccnc4c3N(C)S(C)(=O)=O)n2)ccc1N1CCC(N2CCN(C)CC2)CC1 [Compound I-346]	≥ 7.30	≥ 7.30	≥ 7.30	≥ 7.30	6.30 to 7.30	≥ 7.30

— patent US20230310428A1, “EGFR INHIBITOR AND PREPARATION METHOD AND USE THEREOF” (HONGYUN BIOTECH CO., LTD., priority 2020, published 2023)
